Test results from patent publication US11649245B2, “Cyclopropylamine compound as LSD1 inhibitor and use thereof” (HELIOEAST PHARMACEUTICAL CO., LTD., priority 2018, dated 2023).
Structures can show the parent of a compound that is named as a salt.

Key:
[1] = tested on: HL60 cells; assay: Antiproliferation activity on HL60 cells (CellTiter-Glo, 6 days); assay type: cell-based; settings: Homo sapiens, HL-60, 144 h, incubated for 6 days
Description: Experimental purpose: to detect the antiproliferation activity of the compound to be tested on HL60 cells.
(§1) Experimental materials: RPMI-1640 culture medium, fetal bovine serum, penicillin/streptomycin antibiotics purchased from Wisent. CellTiter-Glo (chemiluminescent cell viability assay reagent) reagents purchased from Promega. HL60 cell line purchased from Nanjing Cobioer Co., Ltd. Nivo multi-label reader (PerkinElmer).
Experimental method: HL60 cells were planted in a white 384-well plate, 40 μL of cell suspension per well, 600 HL60 cells were contained therein. The cell plate was placed in a carbon dioxide incubator for overnight culture. The compounds to be tested were diluted 5-fold with a pipet until the 10th concentration, i.e., diluted from 2 mM to 1.024 nM, double duplicate well experiment was set. 78 μL of the culture medium was added to an intermediate plate, and then 2 μL per well of the serially diluted compounds were transferred to the corresponding positions on the intermediate plate, after mixing, 10 μL per well was transferred to the cell plate. The cell plate was incubated in a carbon dioxide incubator for 6 days. Another cell plate was prepared and the signal value on the day of dosing was read as the maximum value (Max value in the equation below) to participate in the data analysis. 20 μL of chemiluminescent cell viability assay reagent was added to each well of this cell plate, which was incubated at room temperature for 10 minutes to stabilize the luminescence signal. The multi-label reader was used for reading.
(§2) Data analysis: the equation (Sample-Min)/(Max-Min)*100% was used to convert the original data into the inhibition rate, the IC50 value can be obtained by curve fitting of four-parameters (“log(inhibitor) vs. response—Variable slope” mode in GraphPad Prism)).

[2] = molecular target: human LSD1 (Homo sapiens, UniProt O60341); assay: In vitro enzyme activity screening against LSD1 (HRP/Amplex Red fluorescence coupling enzyme method); assay type: biochemical; settings: human LSD1, histone H3K4me peptide substrate 20 μM
Procedure: The purpose of this test was to detect the in vitro inhibitory activity of the compounds against LSD1. The enzyme used in this test was human LSD1, the standard substrate was histone H3K4me peptide (20 μM), the fluorescence coupling enzyme method was used to determine the activity of the compound by combining horseradish peroxidase (HRP) and fluorescent reagent Amplex Red to detect the H2O2 generation as a result of the reaction of LSD1. Compounds were tested in 10-dose IC50 mode with a 3-fold serial dilution starting at 10 μM. The enzyme and […] to start the reaction. Fluorescence detector: Envision, excitation wavelength: Ex/Em=530/590 […]

[3] = tested on: MV-4-11 cells; assay: Antiproliferation activity on MV-4-11 cells (CellTiter-Glo, 6 days); assay type: cell-based; settings: Homo sapiens, MV4-11, 144 h, incubated for 6 days
Description: Experimental purpose: to detect the antiproliferation activity of the compound to be tested on MV-4-11 cells.
as §1, with “IMDM” for “RPMI-1640”, “MV-4-11” for “HL60”, “line was” for “line”, “Multi-Marker Analyzer” for “multi-label reader”
Experimental method: MV-4-11 cells were planted in a white 96-well plate, 80 μL of cell suspension per well, which contained 6000 MV-4-11 cells. The cell plate was placed in a carbon dioxide incubator for overnight culture.
The compounds to be tested were diluted 5-fold with a pipet until the 8th concentration, i.e., diluted from 2 mM to 25.6 nM, double duplicate well experiment was set. 78 μL of the culture medium was added to an intermediate plate, and then 2 μL per well of the serially diluted compounds were transferred to the corresponding positions on the intermediate plate, after mixing, 20 μL per well was transferred to the cell plate. The cell plate was incubated in a carbon dioxide incubator for 6 days. Another cell plate was prepared and the signal value on the day of dosing was read as the maximum value (Max value in the equation below) to participate in the data analysis. 25 μL of the chemiluminescent cell viability assay reagent was added to each well of this cell plate, which was incubated at room temperature for 10 minutes to stabilize the luminescence signal. The multi-label analyzer was used for reading.
as §2

[4] = tested on: NCI-H1417 cells; assay: Antiproliferation activity on NCI-H1417 cells (CellTiter-Glo, 10 days); assay type: cell-based, human; settings: Homo sapiens, NCI-H1417, 240 h, incubated for 10 days
Procedure: Experimental purpose: to detect the antiproliferation activity of the compounds on NCI-H1417 cells.
Experimental materials: RPMI 1640 culture medium, fetal bovine serum, Promega CellTiter-Glo reagent. NCI-H1417 cell line purchased from ATCC. Envision multi-label reader (PerkinElmer).
Experimental method: the compounds were dissolved to 10 mM, then the compounds were diluted 5 times with DMSO in a compound plate, the compounds were diluted 3-fold with Bravo from a starting concentration of 2 mM to the 10th concentration, 250 nL of the solutions were transferred to the upper and lower duplicate wells on a blank 384 cell plate by Echo transfer plate, cell suspension of per well/1000 cells/50 μL was added to the transferred 250 nL DMSO/compound, the compounds were diluted 200-fold, i.e., the initial action concentration was 10 μM. The cell plate was placed in a carbon dioxide incubator and incubated for 10 days. 25 μL of Promega CellTiter-Glo reagent was added to each well on the cell plate and was shaken at room temperature for 10 minutes to stabilize the luminescence signal. Readings were performed by PerkinElmer Envision multi-label analyzer.
Data analysis: the equation (Max-Ratio)/(Max-Min)*100% was used to convert the original data into the inhibition rate, the value of IC50 can be obtained by curve fitting of four-parameters (the 205 mode in XLFITS, iDBS).

[5] = In vivo pharmacokinetics in CD-1 mice; settings: male, CD-1, mouse, plasma, male CD-1 mice; for half-life / clearance / Vd: iv, 1 mg/kg; for half-life: IV 1 mg/kg, read-out: Half-life T1/2 (IV) (converted); for clearance / Vd / Cmax: study doses 1 mg/kg intravenous, 2 mg/kg oral; for clearance: read-out: Clearance CL; for Vd: read-out: Volumes of distribution Vdss; for Cmax: route not given, read-out: Max concentration Cmax; for AUC(0-t) / bioavailability: po, 2 mg/kg; for AUC(0-t): PO 2 mg/kg, read-out: The area under the plasma concentration-time curve AUC0-last PO; for bioavailability: oral 2 mg/kg vs intravenous 1 mg/kg, read-out: Bioavailability F
Procedure: CD-1 mice (male, 7-9 weeks old, Shanghai Slac)
The rodent pharmacokinetic characteristics after intravenous injection and oral administration of the compounds were tested by standard protocols, in the experiment, the candidate compounds were formulated into clear solutions and administrated to mice via a single intravenous injection and oral administration. The vehicle for intravenous injection and oral administration was a mixed solution of 10% of dimethyl sulfoxide and 90% of 10% hydroxypropyl β cyclodextrin. This project used four male CD-1 mice, two mice were administered intravenously, with a dose of 1 mg/kg, and plasma samples were collected at 0 hour (before administration) and 0.0833, 0.25, 0.5, 1, 2, 4, 8, 24 hours after administration. The other two mice were orally administered by gavage, with a dose of 2 mg/kg, plasma samples were collected at 0 hour (before administration) and 0.25, 0.5, 1, 2, 4, 8, 24 hours after administration, whole blood samples were collected within 24 hours, which were centrifuged at 3000 g for 15 minutes, and the supernatants were separated to obtain plasma samples, 4 times volume of acetonitrile solutions containing internal standard were added to precipitate the protein, the mixtures were centrifuged to obtain the supernatants, the supernatants were added with water of equal volume and centrifuged again to take the supernatant for injection, and the blood drug concentration was quantitatively analyzed by the LC-MS/MS analysis method, and pharmacokinetic parameters were calculated, such as max concentration (Cmax), clearance (CL), half-life (T1/2), volumes of distribution (Vdss), the area under the plasma concentration-time curve (AUC0-last), bioavailability (F) etc.

Row | SMILES | IC50 [2] [µM] | also measured
1 | c1ccc([C@@H]2C[C@H]2NC2COC3(CCN(Cc4ccc(-c5nn[nH]n5)cc4)CC3)C2)cc1 (stereo partly shown) [Hydrochloride of the compound 24] | 0.0415 | IC50 [1]: 0.0391 µM; IC50 [3]: 0.0383 µM
2 | O=C(O)c1ccc(C(=O)N2CCC3(CC2)CC(N[C@@H]2C[C@H]2c2ccccc2)CO3)cc1 (stereo partly shown) [Hydrochloride of the compound 22] | 0.908 | –
3 | O=C(O)c1ccc(CCN2CCC3(CC2)CC(N[C@@H]2C[C@H]2c2ccccc2)CO3)cc1 (stereo partly shown) [Hydrochloride of the compound 19] | 0.208 | IC50 [1]: 0.00146 µM; IC50 [4]: 0.00695 µM; IC50 [3]: 0.00441 µM
4 | COc1ccc(CN2CCC3(CC2)CC(N[C@@H]2C[C@H]2c2ccccc2)CO3)cc1 (stereo partly shown) [Hydrochloride of the compound 8] | 0.0397 | –
5 | O=C(O)c1cccc(CN2CCC3(CC2)CC(N[C@@H]2C[C@H]2c2ccccc2)CO3)c1 (stereo partly shown) [Hydrochloride of the compound 3] | 0.0967 | –
6 | O=C(O)C1CC(CN2CCC3(CC2)CC(N[C@@H]2C[C@H]2c2ccccc2)CO3)C1 (stereo partly shown) [Hydrochloride of the compound 29] | 1.67 | –
7 | O=C(O)c1ccc(N2CCC3(CC2)CC(N[C@@H]2C[C@H]2c2ccccc2)CO3)cc1 (stereo partly shown) [Hydrochloride of the compound 11] | 2.88 | –
8 | Fc1ccc(CN2CCC3(CC2)CC(N[C@@H]2C[C@H]2c2ccccc2)CO3)cc1 (stereo partly shown) [Hydrochloride of the compound 9] | 0.0378 | –
9 | O=C(O)c1ccc2cc(CN3CCC4(CC3)CC(N[C@@H]3C[C@H]3c3ccccc3)CO4)ccc2c1 (stereo partly shown) [Hydrochloride of the compound 17] | 0.0706 | IC50 [1]: 0.00078 µM; IC50 [4]: 0.00065 µM; IC50 [3]: 0.00286 µM
10 | O=C(O)c1ccc(CN2CC3(CC(N[C@@H]4C[C@H]4c4ccccc4)CO3)C2)cc1 (stereo partly shown) [Hydrochloride of the compound 2] | 1.58 | –
11 | Clc1ccc(CN2CCC3(CC2)CC(N[C@@H]2C[C@H]2c2ccccc2)CO3)cc1 (stereo partly shown) [Hydrochloride of the compound 13] | 0.0466 | –
12 | c1ccc([C@@H]2C[C@H]2NC2COC3(CCN(CCc4nn[nH]n4)CC3)C2)cc1 (stereo partly shown) [Hydrochloride of the compound 33] | 0.0482 | –
13 | O=C(O)c1ccc(OC(=O)N2CCC3(CC2)CC(N[C@@H]2C[C@H]2c2ccccc2)CO3)cc1 (stereo partly shown) [Hydrochloride of the compound 25] | 1.72 | –
14 | O=C(O)C1(CN2CCC3(CC2)CC(N[C@@H]2C[C@H]2c2ccccc2)CO3)CC1 (stereo partly shown) [Hydrochloride of the compound 31] | 2.12 | –
15 | O=C(O)c1cnc(CN2CCC3(CC2)CC(N[C@@H]2C[C@H]2c2ccccc2)CO3)cn1 (stereo partly shown) [Hydrochloride of the compound 18] | 0.0929 | IC50 [1]: 0.0204 µM; IC50 [3]: 0.016 µM
16 | FC(F)(F)c1ccc(CN2CCC3(CC2)CC(N[C@@H]2C[C@H]2c2ccccc2)CO3)cc1 (stereo partly shown) [Hydrochloride of the compound 10] | 0.0784 | –
17 | O=C(O)c1ccccc1CN1CCC2(CC1)CC(N[C@@H]1C[C@H]1c1ccccc1)CO2 (stereo partly shown) [Hydrochloride of the compound 7] | 0.0451 | –
18 | O=C(O)C12CCC(CN3CCC4(CC3)CC(N[C@@H]3C[C@H]3c3ccccc3)CO4)(CC1)CC2 (stereo partly shown) [Hydrochloride of the compound 28] | 1.46 | –
19 | O=C(O)Cc1ccc(N2CCC3(CC2)CC(N[C@@H]2C[C@H]2c2ccccc2)CO3)cc1 (stereo partly shown) [Hydrochloride of the compound 12] | 1.38 | –
20 | O=C(O)c1ccc(CN2CCC3(CC2)CC(N[C@@H]2C[C@H]2c2ccccc2)CCO3)cc1 (stereo partly shown) [Hydrochloride of the compound 26] | 0.271 | –
21 | O=C(O)c1ccc(CN2CCC3(CC2)CC(N[C@@H]2C[C@H]2c2ccccc2)CO3)nc1 (stereo partly shown) [Hydrochloride of the compound 14] | 0.118 | half-life [5]: 0.874 h; clearance [5]: 1.01 L/h/kg; Vd [5]: 0.551 L/kg; Cmax [5]: 0.629 µM; AUC(0-t) [5]: 1380 nM·h; bioavailability [5]: 28.7%
22 | O=C(O)c1ccc(CN2CCC3(CC2)OCC3N[C@@H]2C[C@H]2c2ccccc2)cc1 (stereo partly shown) [Hydrochloride of the compound 5] | 3.85 | –
23 | NC(=O)c1ccc(CN2CCC3(CC2)CC(N[C@@H]2C[C@H]2c2ccccc2)CO3)cc1 (stereo partly shown) [Hydrochloride of the compound 23] | 0.0646 | IC50 [4]: 0.00168 µM; half-life [5]: 4.32 h; clearance [5]: 4.12 L/h/kg; Vd [5]: 18.6 L/kg; Cmax [5]: 0.144 µM; AUC(0-t) [5]: 360 nM·h; bioavailability [5]: 37.2%
24 | O=C(O)c1ccc(CN2CC3(CC(N[C@@H]4C[C@H]4c4ccccc4)CCO3)C2)cc1 (stereo partly shown) [Hydrochloride of the compound 4] | 0.94 | –
25 | O=C(O)[C@H]1CC[C@H](CN2CCC3(CC2)CC(N[C@@H]2C[C@H]2c2ccccc2)CO3)CC1 (stereo partly shown) [Hydrochloride of the compound 27] | 1.78 | –
26 | O=C(O)c1ccc(NC(=O)N2CCC3(CC2)CC(N[C@@H]2C[C@H]2c2ccccc2)CO3)cc1 (stereo partly shown) [Hydrochloride of the compound 1] | 1.69 | –
